The record followed here is patent publication EP4692114A1, “CALCITONIN ANALOGUE, AND DERIVATIVE THEREOF AND USE THEREOF” (Hangzhou Sciwind Biosciences Co., Ltd., priority 2023, dated 2024).

pEC50: −log10 of the molar value. *1 amine or outer side, *2 acyl side, *3 side chain or, on linkers, in order; H or OH if unused. Where a SMILES comes first, the peptide text is derived from it. The star is where a group is joined. C22 diacid = O=C(O)CCCCCCCCCCCCCCCCCCCCC(=O)*; C20 diacid = O=C(O)CCCCCCCCCCCCCCCCCCC(=O)*; γGlu = O=C(O)[C@H](CCC(=O)[*:2])N[*:1]; AEEA = NCCOCCOCC(=O)O

The assay addresses T1, human amylin receptors (Homo sapiens, UniProt O60896+P30988).
T1 sequence (P30988 25-474): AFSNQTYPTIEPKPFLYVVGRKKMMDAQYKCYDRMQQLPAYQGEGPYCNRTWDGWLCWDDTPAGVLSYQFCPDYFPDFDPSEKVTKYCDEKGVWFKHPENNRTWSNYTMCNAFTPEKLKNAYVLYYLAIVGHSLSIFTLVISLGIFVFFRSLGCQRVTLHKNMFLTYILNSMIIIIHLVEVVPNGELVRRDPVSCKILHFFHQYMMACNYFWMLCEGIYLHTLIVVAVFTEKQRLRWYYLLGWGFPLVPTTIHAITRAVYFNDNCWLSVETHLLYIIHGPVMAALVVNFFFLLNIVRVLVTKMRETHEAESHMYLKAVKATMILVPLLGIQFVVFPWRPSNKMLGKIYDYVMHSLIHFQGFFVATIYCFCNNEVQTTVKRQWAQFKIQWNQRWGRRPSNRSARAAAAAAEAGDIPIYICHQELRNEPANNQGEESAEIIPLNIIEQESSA
T1 sequence (O60896 24-148 partner): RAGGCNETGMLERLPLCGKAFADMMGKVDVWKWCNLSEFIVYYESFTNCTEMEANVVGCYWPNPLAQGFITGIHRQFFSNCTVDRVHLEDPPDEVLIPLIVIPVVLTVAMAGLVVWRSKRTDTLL
The assay can be described thus: Luciferase assay of amylin (amylin receptor/CRE-luc cell line).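 Further: agonist potency from luminescence of cAMP response element-driven luciferase, EC50 derived from a standard curve of signal versus compound concentration.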 It is filed as cell-based. As to conditions: stably transfected amylin receptor/CRE-luc CHO cells (CHO-K1/Gal5/AMY3), 24 hours incubation, luciferase readout.
Excerpt: The objective of this assay is to test the activity or potency of calcitonin analogues or derivatives on human amylin receptors in vitro using a luciferase assay.
Using the standard protocol, CHO-K1/Gal5/AMY3 cells (purchased from GenScript, with the calcitonin receptor and the receptor activity modifying peptide (RAMP) constructed already) were transfected with a plasmid containing a luciferase expression cassette driven by multiple copies of cAMP response elements (CREs). The cells were cultured in an F12 medium containing 200 ug/mL Zeocin, 2 ug/mL puromycin, 100 ug/mL hygromycin, and 400 ug/mL G418 to afford a stably transfected amylin receptor/CRE-luc cell line.
To each well of a white 96-well plate was added 50 µL of the tested sample solution at a respective concentration.
The stably transfected amylin receptor/CRE-luc CHO cells were resuspended in the growth medium at a certain density, and 50 µL of the cell suspension was added at a density of about 20000 cells per well to the white 96-well plate containing the tested sample solution. After incubation of 24 hours at 37°C and 5% CO2, 100 µL of a Luciferase substrate was added to each well, incubated for 3 minutes, and finally was tested for luminescence on SpectraMax L (Molecular Devices) with the software SoftMax Pro 7.0.3 GxP. A standard curve was plotted using the fluorescent intensities for calculation of EC50.
The pEC50 is the EC50 on a negative log10 scale, so that one unit is a factor of ten. Read a high pEC50 as a small EC50. `CC(C)C[C@H](NC(=O)[C@H](CCCNC(=N)N)NC(=O)CNC(=O)[C@H](CC(C)C)NC(=O)[C@@H](NC(=O)[C@H](C)NC(=O)[C@@H](NC(=O)[C@H](CO)NC(=O)[C@H](CC(C)C)NC(=O)[C@H](CCC(N)=O)NC(=O)[C@H](CO)NC(=O)[C@H](C)NC(=O)COCCOCCNC(=O)COCCOCCNC(=O)COCCOCCNC(=O)COCCOCCNC(=O)CC[C@H](NC(=O)CCCCCCCCCCCCCCCCCCC(=O)O)C(=O)O)[C@@H](C)O)C(C)C)C(=O)N[C@@H](CO)C(=O)N[C@@H](CCC(=O)O)C(=O)N[C@@H](CCC(=O)O)C(=O)N[C@@H](CC(C)C)C(=O)N[C@@H](Cc1c[nH]cn1)C(=O)N[C@@H](CCCNC(=N)N)C(=O)N[C@@H](CC(C)C)C(=O)N[C@@H](CCC(N)=O)C(=O)N[C@@H](CC(=O)O)C(=O)N[C@@H](Cc1ccc(O)cc1)C(=O)N1CCC[C@H]1C(=O)N[C@@H](CCCNC(=N)N)C(=O)N[C@H](C(=O)N[C@@H](CC(=O)O)C(=O)N[C@H](C(=O)NCC(=O)N[C@@H](CO)C(=O)NCC(=O)N[C@@H](CO)C(=O)N1CCC[C@H]1C(N)=O)C(C)C)[C@@H](C)O` [M63] ({C20 diacid-γGlu-AEEA-AEEA-AEEA-AEEA}-ASQLSTAVLGRLSEELHRLQDYPRTDVGSGSP-NH2): the pEC50 is 10.43.

As for `CC(C)C[C@H](NC(=O)[C@H](CCCNC(=N)N)NC(=O)CNC(=O)[C@H](CC(C)C)NC(=O)[C@@H](NC(=O)[C@H](C)NC(=O)[C@@H](NC(=O)[C@H](CO)NC(=O)[C@H](CC(C)C)NC(=O)[C@H](CCC(N)=O)NC(=O)[C@H](CO)NC(=O)[C@H](C)NC(=O)CC[C@H](NC(=O)CCCCCCCCCCCCCCCCCCCCC(=O)O)C(=O)O)[C@@H](C)O)C(C)C)C(=O)N[C@@H](CO)C(=O)N[C@@H](CCC(=O)O)C(=O)N[C@@H](CCC(=O)O)C(=O)N[C@@H](CC(C)C)C(=O)N[C@@H](Cc1c[nH]cn1)C(=O)N[C@@H](CCCNC(=N)N)C(=O)N[C@@H](CC(C)C)C(=O)N[C@@H](CCC(N)=O)C(=O)N[C@@H](CC(=O)O)C(=O)N[C@@H](Cc1ccc(O)cc1)C(=O)N1CCC[C@H]1C(=O)N[C@@H](CCCNC(=N)N)C(=O)N[C@H](C(=O)N[C@@H](CC(=O)O)C(=O)N[C@H](C(=O)NCC(=O)N[C@@H](CO)C(=O)NCC(=O)N[C@@H](CO)C(=O)N1CCC[C@H]1C(N)=O)C(C)C)[C@@H](C)O` [M65] ({C22 diacid-γGlu}-ASQLSTAVLGRLSEELHRLQDYPRTDVGSGSP-NH2), the pEC50 was 10.77. For the molecule `CC(C)C[C@H](NC(=O)[C@H](CCCNC(=N)N)NC(=O)CNC(=O)[C@H](CC(C)C)NC(=O)[C@@H](NC(=O)[C@H](C)NC(=O)[C@@H](NC(=O)[C@H](CO)NC(=O)[C@H](CC(C)C)NC(=O)[C@H](CCC(N)=O)NC(=O)[C@H](CO)NC(=O)[C@H](C)NC(=O)COCCOCCNC(=O)COCCOCCNC(=O)CC[C@H](NC(=O)CCCCCCCCCCCCCCCCCCCCC(=O)O)C(=O)O)[C@@H](C)O)C(C)C)C(=O)N[C@@H](CO)C(=O)N[C@@H](CCC(=O)O)C(=O)N[C@@H](CCC(=O)O)C(=O)N[C@@H](CC(C)C)C(=O)N[C@@H](Cc1c[nH]cn1)C(=O)N[C@@H](CCCNC(=N)N)C(=O)N[C@@H](CC(C)C)C(=O)N[C@@H](CCC(N)=O)C(=O)N[C@@H](CC(=O)O)C(=O)N[C@@H](Cc1ccc(O)cc1)C(=O)N1CCC[C@H]1C(=O)N[C@@H](CCCNC(=N)N)C(=O)N[C@H](C(=O)N[C@@H](CC(=O)O)C(=O)N[C@H](C(=O)NCC(=O)N[C@@H](CO)C(=O)NCC(=O)N[C@@H](CO)C(=O)N1CCC[C@H]1C(N)=O)C(C)C)[C@@H](C)O` [M66] ({C22 diacid-γGlu-AEEA-AEEA}-ASQLSTAVLGRLSEELHRLQDYPRTDVGSGSP-NH2), the pEC50 is 10.77. Under `CC(C)C[C@H](NC(=O)[C@H](CCCNC(=N)N)NC(=O)CNC(=O)[C@H](CC(C)C)NC(=O)[C@@H](NC(=O)[C@H](C)NC(=O)[C@@H](NC(=O)[C@H](CO)NC(=O)[C@H](CC(C)C)NC(=O)[C@H](CCC(N)=O)NC(=O)[C@H](CO)NC(=O)[C@H](C)NC(=O)COCCOCCNC(=O)COCCOCCNC(=O)COCCOCCNC(=O)COCCOCCNC(=O)CC[C@H](NC(=O)CCCCCCCCCCCCCCCCCCCCC(=O)O)C(=O)O)[C@@H](C)O)C(C)C)C(=O)N[C@@H](CO)C(=O)N[C@@H](CCC(=O)O)C(=O)N[C@@H](CCC(=O)O)C(=O)N[C@@H](CC(C)C)C(=O)N[C@@H](Cc1c[nH]cn1)C(=O)N[C@@H](CCCNC(=N)N)C(=O)N[C@@H](CC(C)C)C(=O)N[C@@H](CCC(N)=O)C(=O)N[C@@H](CC(=O)O)C(=O)N[C@@H](Cc1ccc(O)cc1)C(=O)N1CCC[C@H]1C(=O)N[C@@H](CCCNC(=N)N)C(=O)N[C@H](C(=O)N[C@@H](CC(=O)O)C(=O)N[C@H](C(=O)NCC(=O)N[C@@H](CO)C(=O)NCC(=O)N[C@@H](CO)C(=O)N1CCC[C@H]1C(N)=O)C(C)C)[C@@H](C)O` [M67] ({C22 diacid-γGlu-AEEA-AEEA-AEEA-AEEA}-ASQLSTAVLGRLSEELHRLQDYPRTDVGSGSP-NH2) stands 10.77.
